Measurements from PubChem BioAssay (NCI).
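Exposure lasted 48 hours, with cells grown in 96-well plates and compounds tested at five concentrations. TGI marks complete inhibition of growth.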

Legend:
Assay in all cases: NCI tumour cell line growth inhibition, 48 h
A549 NSCLC = tested on: A549 NSCLC
ACHN renal = tested on: ACHN renal
CAKI-1 renal = tested on: CAKI-1 renal
CCRF-CEM leukemia = tested on: CCRF-CEM leukemia
COLO 205 colon = tested on: COLO 205 colon
DLD-1 colon = tested on: DLD-1 colon
DMS 114 small cell lung = tested on: DMS 114 small cell lung
DMS 273 small cell lung = tested on: DMS 273 small cell lung
EKVX NSCLC = tested on: EKVX NSCLC
HCT-116 colon = tested on: HCT-116 colon
HCT-15 colon = tested on: HCT-15 colon
HL-60(TB) leukemia = tested on: HL-60(TB) leukemia
HOP-18 NSCLC = tested on: HOP-18 NSCLC
HOP-62 NSCLC = tested on: HOP-62 NSCLC
HOP-92 NSCLC = tested on: HOP-92 NSCLC
HT29 colon = tested on: HT29 colon
IGROV1 ovarian = tested on: IGROV1 ovarian
K-562 leukemia = tested on: K-562 leukemia
KM20L2 colon = tested on: KM20L2 colon
LOX IMVI melanoma = tested on: LOX IMVI melanoma
M14 melanoma = tested on: M14 melanoma
M19-MEL melanoma = tested on: M19-MEL melanoma
MALME-3M melanoma = tested on: MALME-3M melanoma
MOLT-4 leukemia = tested on: MOLT-4 leukemia
NCI-H23 lung = tested on: NCI-H23 lung
NCI-H460 lung = tested on: NCI-H460 lung
OVCAR-3 ovarian = tested on: OVCAR-3 ovarian
OVCAR-4 ovarian = tested on: OVCAR-4 ovarian
OVCAR-8 ovarian = tested on: OVCAR-8 ovarian
RPMI-8226 leukemia = tested on: RPMI-8226 leukemia
RXF 393 renal = tested on: RXF 393 renal
RXF-631 renal = tested on: RXF-631 renal
SF-295 CNS = tested on: SF-295 CNS
SK-MEL-28 melanoma = tested on: SK-MEL-28 melanoma
SK-MEL-5 melanoma = tested on: SK-MEL-5 melanoma
SK-OV-3 ovarian = tested on: SK-OV-3 ovarian
SN12C renal = tested on: SN12C renal
SNB-19 CNS = tested on: SNB-19 CNS
SNB-75 CNS = tested on: SNB-75 CNS
SNB-78 CNS = tested on: SNB-78 CNS
SW-620 colon = tested on: SW-620 colon
TK-10 renal = tested on: TK-10 renal
U251 CNS = tested on: U251 CNS
UACC-257 melanoma = tested on: UACC-257 melanoma
UACC-62 melanoma = tested on: UACC-62 melanoma
UO-31 renal = tested on: UO-31 renal
XF 498 CNS = tested on: XF 498 CNS

Measured: TGI

COc1ccc(C2C(C(=O)O)=C(COC(C)=O)Oc3cc4c(cc32)OCO4)cc1 (configuration not stated)
> 100 µM: A549 NSCLC | ACHN renal | CAKI-1 renal | CCRF-CEM leukemia | COLO 205 colon | DLD-1 colon | DMS 114 small cell lung | DMS 273 small cell lung | EKVX NSCLC | HCT-116 colon | HCT-15 colon | HL-60(TB) leukemia | HOP-18 NSCLC | HOP-62 NSCLC | HOP-92 NSCLC | HT29 colon | IGROV1 ovarian | K-562 leukemia | KM20L2 colon | LOX IMVI melanoma | M14 melanoma | M19-MEL melanoma | MALME-3M melanoma | MOLT-4 leukemia | NCI-H23 lung | NCI-H460 lung | OVCAR-3 ovarian | OVCAR-4 ovarian | OVCAR-8 ovarian | RPMI-8226 leukemia | RXF 393 renal | RXF-631 renal | SF-295 CNS | SK-MEL-28 melanoma | SK-MEL-5 melanoma | SK-OV-3 ovarian | SN12C renal | SNB-19 CNS | SNB-75 CNS | SNB-78 CNS | SW-620 colon | TK-10 renal | U251 CNS | UACC-257 melanoma | UACC-62 melanoma | UO-31 renal | XF 498 CNS
